This note sets out measurements from ChEMBL document CHEMBL1147531, “Farnesyloxycoumarins, a new class of squalene-hopene cyclase inhibitors” (Bioorg Med Chem Lett, 2004).

The target in the first experiment is T1, Squalene--hopene cyclase (Alicyclobacillus acidocaldarius subsp. acidocaldarius (strain ATCC27009 / DSM 446 / 104-1A) (Bacillus acidocaldarius), UniProt P33247).
T1 sequence (P33247 whole entry): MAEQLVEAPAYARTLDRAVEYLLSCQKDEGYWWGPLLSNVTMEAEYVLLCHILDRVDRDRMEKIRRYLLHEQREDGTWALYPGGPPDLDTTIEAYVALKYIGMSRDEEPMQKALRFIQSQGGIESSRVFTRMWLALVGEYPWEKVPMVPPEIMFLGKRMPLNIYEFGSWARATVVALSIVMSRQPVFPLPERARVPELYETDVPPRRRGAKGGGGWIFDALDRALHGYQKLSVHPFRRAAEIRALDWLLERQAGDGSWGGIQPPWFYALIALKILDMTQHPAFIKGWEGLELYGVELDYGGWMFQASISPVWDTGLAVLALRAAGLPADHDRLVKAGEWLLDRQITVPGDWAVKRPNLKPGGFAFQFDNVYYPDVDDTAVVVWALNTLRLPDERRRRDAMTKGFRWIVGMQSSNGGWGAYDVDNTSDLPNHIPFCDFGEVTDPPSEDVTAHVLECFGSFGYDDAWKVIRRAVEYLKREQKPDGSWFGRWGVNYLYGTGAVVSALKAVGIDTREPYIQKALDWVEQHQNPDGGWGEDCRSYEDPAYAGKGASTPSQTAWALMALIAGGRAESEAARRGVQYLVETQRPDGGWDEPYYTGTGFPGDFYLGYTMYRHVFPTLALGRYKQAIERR
Nature of the experiment: Inhibitory activity against squalene hopene cyclase from Alicyclobacillus acidocaldarius expressed in Escherichia coli.
`C/C(=C\COc1ccc2ccc(=O)oc2c1)CCC1OC1(C)CCC1OC1(C)C` (centres undefined) gave an IC50 of 1.5 µM.
In turn, `C/C(=C\COc1ccc2ccc(=O)oc2c1)CC/C=C(\C)CCC1OC1(C)C` (centres undefined) registered an IC50 of 2.5 µM.
On the same count and under the same terms, next, `C/C(=C\COc1cc2oc(=O)ccc2cc1O)CC/C=C(\C)CCC1OC1(C)C` (centres undefined): 67 µM; `CC(C)=CCC/C(C)=C/CC/C(C)=C/Cc1c(O)c2ccccc2oc1=O`: 90 µM.
`C/C(=C\COc1ccc2ccc(=O)oc2c1)CC/C=C(\C)CCC(O)C(C)(C)O` (centres undefined) yielded an IC50 of 65 µM.
As to `CC(=O)Oc1ccc2c(OC(C)=O)c(C/C=C(\C)CC/C=C(\C)CCC3OC3(C)C)c(=O)oc2c1` (centres undefined), half-maximal inhibition (IC50) was put at 100 µM.
Same read-out and setting: in the case of `C/C(=C\COc1ccc2ccc(=O)oc2c1)CC[C@H]1C2(C)CC[C@@H](O2)C1(C)C` (single isomer, unassigned) [FARNESIFEROL C] it was 7 µM.
Still for that read-out and setting: next, `CC(C)=CCC/C(C)=C/CC/C(C)=C/COc1ccc2ccc(=O)oc2c1` [UMBELLIPRENIN]: 70 µM.

The next experiment concerns the target T1, Squalene--hopene cyclase. As to the kind of experiment: Inhibitory activity against squalene hopene cyclase from Alicyclobacillus acidocaldarius expressed in Escherichia coli at a concentration of 100 uM; n.a. = not active.
In the case of `CC1(C)C(=O)CC[C@]2(C)[C@@H]1CC[C@](C)(O)[C@H]2COc1ccc2ccc(=O)oc2c1`, the IC50 entry is “Not Active”.
Still for that read-out and setting: next, `CC(C)=CCC/C(C)=C/CC/C(C)=C/COc1cc(=O)oc2ccccc12`: “Not Active”.
On to `CC(=O)O[C@H]1CC[C@]2(C)[C@H](CC[C@](C)(O)[C@H]2COc2ccc3ccc(=O)oc3c2)C1(C)C`, for which the IC50 entry is reported as “Not Active”.
Take `CC(C)=CCC/C(C)=C/CC/C(C)=C/Cc1c(O)oc2cc(O)ccc2c1=O`: the IC50 entry is on record as “Not Active”.
On the same count and under the same terms, next, `C=C1CC[C@@H]2C(C)(C)[C@H](O)CC[C@@]2(C)[C@@H]1COc1ccc2ccc(=O)oc2c1`: “Not Active”; `CC1(C)[C@H]2CC[C@](C)(O)[C@@H](COc3ccc4ccc(=O)oc4c3)[C@]2(C)CC[C@@H]1O`: “Not Active”; `C=C1CC[C@@H]2C(C)(C)C(=O)CC[C@@]2(C)[C@@H]1COc1ccc2ccc(=O)oc2c1`: “Not Active”.

Another experiment concerns the target T2, Squalene--hopene cyclase (Alicyclobacillus acidocaldarius subsp. acidocaldarius (strain ATCC27009 / DSM 446 / 104-1A) (Bacillus acidocaldarius)) (UniProt P33247).
T2 sequence (whole entry): T1 sequence (P33247 whole entry)
Nature of the experiment: IInhibitory activity against squalene hopene cyclase from Alicyclobacillus acidocaldarius expressed in Escherichia coli at a concentration of 100 uM.
For the compound `CC(=O)Oc1ccc2c(OC(C)=O)c(C/C=C(\C)CCC3OC3(C)CCC3OC3(C)C)c(=O)oc2c1` (centres undefined), the inhibition stood at 38%.

The next experiment deals with T2, Squalene--hopene cyclase (Alicyclobacillus acidocaldarius subsp. acidocaldarius (strain ATCC27009 / DSM 446 / 104-1A) (Bacillus acidocaldarius)). As to the kind of experiment: Inhibitory activity against squalene hopene cyclase from Alicyclobacillus acidocaldarius expressed in Escherichia coli at a concentration of 100 uM.
As to `C/C(=C\COc1cc(=O)oc2ccccc12)CC/C=C(\C)CCC1OC1(C)C` (centres undefined), the inhibition worked out at 40%.
The same measure, in the same setting: next, `CC(=O)Oc1cc2ccc(=O)oc2cc1OC/C=C(\C)CC/C=C(\C)CCC1OC1(C)C` (centres undefined): 46%.
Same read-out and setting: in the case of `CC(=O)Oc1cc2ccc(=O)oc2cc1OC/C=C(\C)CCC1OC1(C)CCC1OC1(C)C` (centres undefined) it was 7%.
